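48-hour exposure; five concentrations; linearly interpolated endpoints. GI50 marks 50% less growth.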 Calls of active or inactive are those of the source. Cut-off read from the data, not from the text of the source: active = GI50 up to about 1.1 µM and inactive = higher.
How the values were obtained:
Experiment in all cases: inhibition of tumour cell growth, NCI panel, 48 h
[1] = test system: SW-620
[2] = test system: SK-OV-3
[3] = test system: A498
[4] = test system: RPMI-8226
[5] = test system: HT-29
[6] = test system: MDA-MB-231
[7] = test system: T47D
[8] = test system: MCF7
[9] = test system: HOP-62
[10] = test system: K562
[11] = test system: OVCAR-4
[12] = test system: SK-MEL-28
[13] = test system: HCT-116
[14] = test system: UACC-62
[15] = test system: EKVX
[16] = test system: HL-60
[17] = test system: 786-0
[18] = test system: HCT-15
[19] = test system: SK-MEL-2

| SMILES | GI50 [1] | GI50 [2] | GI50 [3] | GI50 [4] | GI50 [5] | GI50 [6] | GI50 [7] | GI50 [8] | GI50 [9] | GI50 [10] | GI50 [11] | GI50 [12] | GI50 [13] | GI50 [14] | GI50 [15] | GI50 [16] | GI50 [17] | GI50 [18] | GI50 [19] |
| --- | --- | --- | --- | --- | --- | --- | --- | --- | --- | --- | --- | --- | --- | --- | --- | --- | --- | --- | --- |
| C/C(=C/CC[C@]1(CO)CC[C@]2(CO)[C@H](CC[C@@H]3[C@@]4(C)CC[C@H](OC5OCC(O)C(O)C5OC5OC(CO)C(O)C(O)C5O)C(C)(C)[C@@H]4CC[C@]32C)[C@H]1O)CO (some centres not stated) | > 100 µM (inactive) | > 100 µM (inactive) | > 100 µM (inactive) | > 100 µM (inactive) | > 100 µM (inactive) | > 100 µM (inactive) | > 100 µM (inactive) | > 100 µM (inactive) | > 100 µM (inactive) | > 100 µM (inactive) | > 100 µM (inactive) | > 100 µM (inactive) | > 100 µM (inactive) | > 100 µM (inactive) | > 100 µM (inactive) | > 100 µM (inactive) | > 100 µM (inactive) |  |  |
| Clc1ccc(Cl)c(SCCCN2CCNCC2)c1 | 22.3 µM (inactive) | 15.1 µM (inactive) | 13.7 µM (inactive) | 19.8 µM (inactive) | 14.6 µM (inactive) | 15 µM (inactive) | 23.9 µM (inactive) | 18.4 µM (inactive) | 18 µM (inactive) | 14.6 µM (inactive) | 20.6 µM (inactive) | 10.4 µM (inactive) | 18.3 µM (inactive) | 2.61 µM (inactive) | 16.9 µM (inactive) | 14.2 µM (inactive) | 20.1 µM (inactive) | 18.7 µM |  |
| NCCCCN(CCCN)Cc1ccc2ccccc2c1 | > 100 µM (inactive) | 96.4 µM (inactive) | 20.7 µM (inactive) | > 100 µM (inactive) | 23.3 µM (inactive) | 32.4 µM (inactive) | > 100 µM (inactive) | 54.1 µM (inactive) |  | > 100 µM (inactive) | 39.4 µM (inactive) | > 100 µM (inactive) | 36.7 µM (inactive) | 95.7 µM (inactive) | 21.3 µM (inactive) | 67.5 µM (inactive) | 34.2 µM (inactive) | > 100 µM |  |
| O=C1CCCCN1C(=O)c1ccc([N+](=O)[O-])cc1 | > 100 µM (inactive) |  | > 100 µM (inactive) | > 100 µM (inactive) | > 100 µM (inactive) | > 100 µM (inactive) | > 100 µM (inactive) | > 100 µM (inactive) | > 100 µM (inactive) | > 100 µM (inactive) | > 100 µM (inactive) | > 100 µM (inactive) | > 100 µM (inactive) | 37.3 µM (inactive) | > 100 µM (inactive) | > 100 µM (inactive) | > 100 µM (inactive) | > 100 µM |  |
| Clc1cccc(Cl)c1C1SCC2=Nc3ccccc3CN21 (configuration not stated) | 33.3 µM (inactive) | 20.6 µM (inactive) | 71.8 µM (inactive) | 17.1 µM (inactive) |  | 42.9 µM (inactive) | 21.4 µM (inactive) | 20.2 µM (inactive) | 19.5 µM (inactive) | 31.3 µM (inactive) | 80.4 µM (inactive) | 23.3 µM (inactive) | 12.1 µM (inactive) | 27.4 µM (inactive) | 23.7 µM (inactive) | 21.7 µM (inactive) | 13.2 µM (inactive) | 32 µM |  |
| O=S(=O)(c1ccccc1)C1(CCC2OCCO2)C=CC2(CC1)OCCO2 (configuration not stated) | > 100 µM (inactive) | > 100 µM (inactive) | > 100 µM (inactive) | > 100 µM (inactive) | > 100 µM (inactive) | > 100 µM (inactive) | > 100 µM (inactive) | > 100 µM (inactive) | > 100 µM (inactive) | > 100 µM (inactive) | > 100 µM (inactive) | > 100 µM (inactive) | > 100 µM (inactive) | > 100 µM (inactive) | > 100 µM (inactive) | > 100 µM (inactive) | > 100 µM (inactive) | > 100 µM |  |
| C[C@H]1CC[C@@H]2[C@@H](C)C[C@H]3[C@@H]4C(C)(C)OC(=O)[C@]4(C)C(=O)[C@@]23C1=O | > 100 µM (inactive) | > 100 µM (inactive) | > 100 µM (inactive) | > 100 µM (inactive) | > 100 µM (inactive) | 42.5 µM (inactive) | 14 µM (inactive) | > 100 µM (inactive) | > 100 µM (inactive) | > 100 µM (inactive) | > 100 µM (inactive) | > 100 µM (inactive) | > 100 µM (inactive) | > 100 µM (inactive) | > 100 µM (inactive) | > 100 µM (inactive) | > 100 µM (inactive) | > 100 µM |  |
| Nc1ncc(C=O)c(NCC2(CO)CCC2)n1 | 89.9 µM (inactive) |  | 26.3 µM (inactive) | 8.04 µM (inactive) | 64 µM (inactive) | 45.8 µM (inactive) | 14.8 µM (inactive) | 23.9 µM (inactive) | 31.7 µM (inactive) | 36.4 µM (inactive) | 48.9 µM (inactive) |  | 36.6 µM (inactive) | 12.3 µM (inactive) |  | 13 µM (inactive) | > 100 µM (inactive) | 71.1 µM | 19.3 µM (inactive) |
| CN(C)c1cccc(NC2=NCCO2)c1 | 57.7 µM (inactive) |  | 74.5 µM (inactive) | 65.5 µM (inactive) | 19.2 µM (inactive) | 51.4 µM (inactive) | 69.2 µM (inactive) | 50.5 µM (inactive) | 81.1 µM (inactive) | 30.8 µM (inactive) | > 100 µM (inactive) | 42.8 µM (inactive) | 35.9 µM (inactive) | 50.7 µM (inactive) | 78.5 µM (inactive) | 23.1 µM (inactive) | 46.6 µM (inactive) | 45.1 µM | 14.9 µM (inactive) |
| CC1(C)CC(=O)c2c(nc3ccc4ccccc4c3c2-c2ccc(NC(=O)CCCCCCCCC(=O)Nc3ccc(-c4c5c(nc6ccc7ccccc7c46)CC(C)(C)CC5=O)cc3)cc2)C1 | > 100 µM (inactive) | > 100 µM (inactive) | > 100 µM (inactive) | > 100 µM (inactive) | > 100 µM (inactive) | > 100 µM (inactive) | > 100 µM (inactive) | > 100 µM (inactive) | > 100 µM (inactive) | > 100 µM (inactive) |  | > 100 µM (inactive) | > 100 µM (inactive) | > 100 µM (inactive) | > 100 µM (inactive) | > 100 µM (inactive) | > 100 µM (inactive) | > 100 µM | > 100 µM (inactive) |
| N=C(N)NC(CC(=O)O)c1ccccc1 (configuration not stated) | > 100 µM (inactive) | > 100 µM (inactive) | > 100 µM (inactive) | > 100 µM (inactive) | > 100 µM (inactive) | > 100 µM (inactive) | > 100 µM (inactive) | > 100 µM (inactive) | > 100 µM (inactive) | > 100 µM (inactive) | > 100 µM (inactive) | > 100 µM (inactive) | > 100 µM (inactive) | > 100 µM (inactive) | > 100 µM (inactive) |  | > 100 µM (inactive) | > 100 µM | > 100 µM (inactive) |

— ChEMBL document CHEMBL1201862, “PubChem BioAssay data set” (2004)
